In patent US20050288347A1, “Certain triazole-based compounds, compositions, and uses thereof” (priority 2004, published 2005):
“Also recorded” adds a separate entry of the source.

Target: protein kinase
Assay: HTS ATP-utilizing enzyme assay, off-chip mobility-shift format (Caliper HTS 250)
Format: biochemical, human
Details: kinase(s) for which the compound exhibits protein kinase inhibitory activity; test compound 10 μM; active = greater than three-sigma from the mean activity of inactive compounds
Source text: The following procedures describe the reagent and plate preparation for a HTS of an ATP-utilizing enzyme, such as a protein kinase, run in an off-chip mobility-shift assay format. The following provides an HTS protocol for running a protein kinase HTS screen on a Caliper HTS 250 microfluidics system. The following parameters are dependent on the protein kinase used and can be determined by one skilled in the art as part of a typical assay development process. For example, the peptide substrate used can be identified from the current literature, by screening a peptide library of potential protein kinase substrates, or by other applicable means accepted in the field.
The following table provides typical screen assay parameters appropriate for a Caliper HTS 250 microfluidics system.
The reagents and buffers listed in the following table are generally applicable for developing and running an HTS screen on a human protein kinase using the Caliper HTS 250 system.
The following reagents were prepared using the previously described buffers.
A 2× Master Buffer solution was prepared by combining 200 mL of 1 M HEPES, pH 7.5, 2 mL of 10% Triton X-100, 20 mL of 10% BSA, and 778 mL of H2O.
Assays to determine the kinase inhibitory activity of chemical entities of the present disclosure were performed using a Caliper HTS 250 microfluidics device, Greiner U-bottom assay plates, a Multidrop for transfer of reagents, and Biomek FX (AMNCBM03) software. Initially, 2.4 μL of a 1 mM solution of a test compound in 100% DMSO was added to a well of the Greiner U-bottom plate. A single Greiner U-bottom plate having 24×16 wells could include multiple test compounds. […] Using the Biomek FX, 10 μL of 0.5 M EDTA was added by the span-8 to wells, indicated as 100% Control and 2.4 μL of 100% DMSO was added by the span-8 to wells, indicated as 0% Control. […] The total reaction volume in each well was 25 μL, and the concentration of the test compound was 10 μM. The assay plate was incubated for 2.5 hrs at 20° C. to 22° C. […] The inhibition of the ATP-utilizing enzyme, such as a particular protein kinase, was determined by measuring the ratio of the peptide substrate to phosphorylated product for each well of the assay plate using the Caliper HTS 250 system.
The use of three-sigma statistical limits represents a conservative method for declaring potential hits among targets. The three-sigma activity, as well as the mean population activity, can be different for each target enzyme.

Row | Structure (SMILES) | Kinase
1 | CCn1c(SCC(=O)N2CCc3ccccc3C2)nnc1-c1cc2ccccc2cc1O | DAPK1; also recorded: AURORA-A
2 | CCn1c(SCC(=O)N2CCCc3ccccc32)nnc1-c1cc2ccccc2cc1O | CDK2-cyclinA; also recorded: AURORA-A; also recorded: DAPK1
3 | Cn1c(SCC(=O)N2CCCc3ccccc32)nnc1-c1cc2ccccc2cc1O | FYN and AURORA-A and DAPK1
4 | O=C(CSc1nnc(-c2ccc(O)cc2)n1Cc1ccco1)N1CCc2ccccc21 | AURORA-A
5 | O=C(CSc1nnc(-c2ccccc2O)n1Cc1ccccc1)N(c1ccccc1)c1ccccc1 | CDK2-cyclinA; also recorded: AURORA-A
6 | O=C(CSc1nnc(CNc2ccc(F)cc2)n1Cc1ccccc1)Nc1cccc(O)c1 | CHEK2
7 | CCn1c(SCC(=O)Nc2nc3c(s2)CCCC3)nnc1-c1cc2ccccc2cc1O | AURORA-A; also recorded: CDK2-cyclinE
8 | CCn1c(SCC(=O)Nc2ccc(C)cc2)nnc1-c1ccc(O)cc1 | AURORA-A
9 | Cc1ccc(NC(=O)CSc2nnc(-c3ccccc3O)n2-c2ccc(C)cc2)cc1 | AURORA-A
10 | O=C(CSc1nnc(-c2ccccc2O)n1CCc1ccccc1)Nc1nnc(C(F)(F)F)s1 | AURORA-A
11 | Cc1cc(NC(=O)CSc2nnc(-c3cc4ccccc4cc3O)n2C)no1 | AURORA-A and FYN
12 | Cn1c(SCC(=O)N2c3ccccc3Sc3ccccc32)nnc1-c1cc2ccccc2cc1O | AURORA-A
13 | COc1ccc(-c2nnc(SCC(=O)Nc3ccccc3O)n2-c2ccccc2)cc1OC | AURORA-A
14 | CCn1c(SCC(=O)N2CCCC2)nnc1-c1ccc(S(=O)(=O)N2CCCCCC2)cc1 | AURORA-A
15 | CCN(CC)C(=O)CSc1nnc(-c2ccc(S(=O)(=O)N3CCCCCC3)cc2)n1CC | AURORA-A
16 | CCn1c(SCC(=O)Nc2cc(C)ccc2OC)nnc1-c1ccc(S(=O)(=O)N2CCCCCC2)cc1 | DAPK1
17 | COc1ccc(-n2c(SCC(N)=O)nnc2-c2ccc(O)cc2)cc1 | GSK3-β; also recorded: GSK3-α
18 | COc1ccc2nc(NC(=O)CSc3nnc(-c4ccc(O)cc4)n3CC3CCCO3)sc2c1 (centres unmarked) | GSK3-β; also recorded: PDGFRR-α; also recorded: GSK3-α

Row | Structure (SMILES) | Kinase
19 | O=C(CSc1nnc(-c2ccc(O)cc2)n1CC1CCCO1)NCCc1ccccc1 (centres unmarked) | MSK1
20 | Cc1ccc([N+](=O)[O-])cc1NC(=O)CSc1nnc(-c2ccc(O)cc2)n1C | GSK3-β; also recorded: GSK3-α
21 | CCOc1ccc(NCc2nnc(SCC(=O)N3CCN(C)CC3)n2-c2ccc(C)cc2)cc1 | FYN and AURORA-A
22 | Cc1ccc(NC(=O)CSc2nnc(CNc3ccc(F)cc3)n2CC2CCCO2)cc1 (centres unmarked) | AURORA-A
23 | O=C(CSc1nnc(Cc2ccccc2)n1C1CCCCC1)Nc1cccc(O)c1 | AURORA-A
24 | COCCn1c(SCC(=O)Nc2ccccc2F)nnc1-c1cc2ccccc2cc1O | AURORA-A
25 | CCOc1cc(NC(=O)c2cccs2)c(OCC)cc1NC(=O)CSc1nnc(-c2ccc(O)cc2)n1C | PDGFRR-α
26 | CCn1c(SCC(=O)Nc2sc3c(c2C#N)CCCC3)nnc1-c1ccc(O)cc1 | AURORA-A
27 | COc1ccc(CCNC(=O)CSc2nnc(-c3cc4ccccc4cc3O)n2C)cc1OC | FYN
28 | Cc1ccc(S(=O)(=O)Nc2ccc(-c3nnc(S)n3C)cc2)cc1 | AURORA-A; also recorded: CDK2-cyclinA; also recorded: CHEK2
29 | COc1ccc(-n2c(SC(C)C(=O)Nc3ccc(C(C)=O)cc3)nnc2-c2ccc(O)cc2)cc1 (centres unmarked) | GSK3-β; also recorded: GSK3-α
30 | COCCn1c(SCC(=O)Nc2ccc3c(c2)OCO3)nnc1-c1cc2ccccc2cc1O | AURORA-A
31 | O=C(CSc1nnc(-c2ccc(O)cc2)n1Cc1ccco1)NCc1ccc2c(c1)OCO2 | CDK2-cyclinA and CDK5 and CDK2-cyclinE
32 | COCCn1c(SCC(=O)NCc2ccc3c(c2)OCO3)nnc1-c1cc2ccccc2cc1O | AURORA-A
33 | COC(=O)c1ccccc1NC(=O)CSc1nnc(-c2ccccc2O)n1CCc1ccccc1 | AURORA-A
34 | COCCn1c(SCC(=O)Nc2ccccc2C(=O)OC)nnc1-c1cc2ccccc2cc1O | AURORA-A; also recorded: DAPK1
35 | COC(=O)c1ccccc1NC(=O)CSc1nnc(CNc2ccc(F)cc2)n1CC1CCCO1 (centres unmarked) | AURORA-A
